Assay results reported in US5919771A, “Urea and thiourea derivatives of glycopeptides” (Eli Lilly and Company, priority 1998, dated 1999).

Key:
Format in all cases: cell-based
[1] = tested on: Staphylococcus aureus 447; assay: MIC, standard broth micro-dilution assay, SA 447
Description: (§1) The antibacterial efficacy of the present compounds is illustrated by Table II. The minimal inhibitory concentrations (MICs) were determined using a standard broth micro-dilution assay.

[2] = tested on: Streptococcus pneumoniae P1; assay: MIC, standard broth micro-dilution assay, SPN P1
Description: as §1

[3] = tested on: Staphylococcus haemolyticus 415; assay: MIC, standard broth micro-dilution assay, SH 415
Description: as §1

[4] = tested on: Staphylococcus aureus 489; assay: MIC, standard broth micro-dilution assay, SA 489
Description: as §1

[5] = tested on: Staphylococcus aureus 446; assay: MIC, standard broth micro-dilution assay, SA 446
Description: as §1

[6] = tested on: Streptococcus pyogenes C203; assay: MIC, standard broth micro-dilution assay, SPY C203
Description: as §1

[7] = tested on: Staphylococcus haemolyticus 105; assay: MIC, standard broth micro-dilution assay, SH 105
Description: as §1

[8] = tested on: Staphylococcus epidermidis 270; assay: MIC, standard broth micro-dilution assay, SE 270
Description: as §1

[9] = tested on: Enterococcus faecium and faecalis (RESISTANT); conditions: geometric mean of 4-6 isolates
Description: as §1

[10] = tested on: Enterococcus faecium and faecalis (SENSITIVE); conditions: geometric mean of 4-6 isolates
Description: as §1

Q: With CC(C)CC(C(=O)NC1C(=O)NC(CC(N)=O)C(=O)NC2C(=O)NC3C(=O)NC(C(=O)NC(C(=O)O)c4cc(O)cc(O)c4-c4cc3ccc4O)C(OC3CC(C)(N)C(O)C(C)O3)c3ccc(c(Cl)c3)Oc3cc2cc(c3OC2OC(CO)C(O)C(O)C2OC2CC(C)(NCc3ccc(Cl)cc3)C(O)C(C)O2)Oc2ccc(cc2Cl)C1O)N(C)C(=S)Nc1ccc(Cl)cc1 (centres unmarked) [Example 12, N^LEU -((p-CHLOROPHENYL)-THIOCARBAMOYL)-N^DISACC -(p-CHLOROBENZYL)A82846B] as the compound, how does the “Minimal Inhibitory Concentration (MIC) SA 447” value [1] read?
A: 1

Q: What about the “Minimal Inhibitory Concentration (MIC) SPN P1” value [2] of the same compound?
A: ≤ 0.06

Q: And the “Minimal Inhibitory Concentration (MIC) SH 415” value [3]?
A: 4

Q: And the “Minimal Inhibitory Concentration (MIC) SA 489” value [4]?
A: 1

Q: And the “Minimal Inhibitory Concentration (MIC) SA 446” value [5]?
A: 4

Q: What about the “Minimal Inhibitory Concentration (MIC) SPY C203” value [6] of the same compound?
A: ≤ 0.06

Q: What about the “Minimal Inhibitory Concentration (MIC) SH 105” value [7] of the same compound?
A: 2

Q: And the “Minimal Inhibitory Concentration (MIC) SE 270” value [8]?
A: 1

Q: And the “Minimal Inhibitory Concentration (MIC) RESISTANT” value [9]?
A: 128

Q: And the “Minimal Inhibitory Concentration (MIC) SENSITIVE” value [10]?
A: 3.5

Q: With CC(C)C[C@H](C(=O)N[C@H]1C(=O)N[C@@H](CC(N)=O)C(=O)N[C@H]2C(=O)N[C@H]3C(=O)N[C@H](C(=O)N[C@H](C(=O)O)c4cc(O)cc(O)c4-c4cc3ccc4O)[C@H](O[C@H]3C[C@](C)(N)[C@@H](O)[C@H](C)O3)c3ccc(c(Cl)c3)Oc3cc2cc(c3O[C@@H]2O[C@H](CO)[C@@H](O)[C@H](O)[C@H]2O[C@H]2C[C@](C)(NCc3ccc(-c4ccccc4)cc3)[C@@H](O)[C@H](C)O2)Oc2ccc(cc2Cl)[C@H]1O)N(C)C(=S)Nc1ccccc1 [Example 4, N^LEU -(PHENYLTHIOCARBAMOYL)-N^DISACC -(p-PHENYLBENZYL)A82846B] as the compound, how does the “Minimal Inhibitory Concentration (MIC) SA 447” value [1] read?
A: 1

Q: What about the “Minimal Inhibitory Concentration (MIC) SPN P1” value [2] of the same compound?
A: 0.125

Q: And the “Minimal Inhibitory Concentration (MIC) SH 415” value [3]?
A: 1

Q: What about the “Minimal Inhibitory Concentration (MIC) SA 489” value [4] of the same compound?
A: 0.125

Q: And the “Minimal Inhibitory Concentration (MIC) SA 446” value [5]?
A: 2

Q: What about the “Minimal Inhibitory Concentration (MIC) SPY C203” value [6] of the same compound?
A: ≤ 0.06

Q: And the “Minimal Inhibitory Concentration (MIC) SH 105” value [7]?
A: 2

Q: What about the “Minimal Inhibitory Concentration (MIC) SE 270” value [8] of the same compound?
A: 0.5

Q: What about the “Minimal Inhibitory Concentration (MIC) RESISTANT” value [9] of the same compound?
A: 14

Q: What about the “Minimal Inhibitory Concentration (MIC) SENSITIVE” value [10] of the same compound?
A: 4

Q: How did the “Minimal Inhibitory Concentration (MIC) SA 447” value [1] turn out when CC(C)CC(C(=O)NC1C(=O)NC(CC(N)=O)C(=O)NC2C(=O)NC3C(=O)NC(C(=O)NC(C(=O)O)c4cc(O)cc(O)c4-c4cc3ccc4O)C(OC3CC(C)(N)C(O)C(C)O3)c3ccc(c(Cl)c3)Oc3cc2cc(c3OC2OC(CO)C(O)C(O)C2OC2CC(C)(NCc3ccc(-c4ccc(Cl)cc4)cc3)C(O)C(C)O2)Oc2ccc(cc2Cl)C1O)N(C)C(=S)Nc1ccccc1 (centres unmarked) [Example 22, N^LEU -(PHENYLTHIOCARBAMOYL)-N^DISACC -(p-(p-CHLOROPHENYL)-BENZYL)A82846B] was run?
A: 1

Q: And the “Minimal Inhibitory Concentration (MIC) SPN P1” value [2]?
A: ≤ .06

Q: What about the “Minimal Inhibitory Concentration (MIC) SH 415” value [3] of the same compound?
A: 2

Q: What about the “Minimal Inhibitory Concentration (MIC) SA 489” value [4] of the same compound?
A: 1

Q: And the “Minimal Inhibitory Concentration (MIC) SA 446” value [5]?
A: 2

Q: What about the “Minimal Inhibitory Concentration (MIC) SPY C203” value [6] of the same compound?
A: ≤ .06

Q: And the “Minimal Inhibitory Concentration (MIC) SH 105” value [7]?
A: 1

Q: What about the “Minimal Inhibitory Concentration (MIC) SE 270” value [8] of the same compound?
A: 0.5

Q: And the “Minimal Inhibitory Concentration (MIC) RESISTANT” value [9]?
A: 6.7

Q: What about the “Minimal Inhibitory Concentration (MIC) SENSITIVE” value [10] of the same compound?
A: 2.6

Q: How did the “Minimal Inhibitory Concentration (MIC) SA 447” value [1] turn out when CC(C)CC(C(=O)NC1C(=O)NC(CC(N)=O)C(=O)NC2C(=O)NC3C(=O)NC(C(=O)NC(C(=O)O)c4cc(O)cc(O)c4-c4cc3ccc4O)C(OC3CC(C)(N)C(O)C(C)O3)c3ccc(c(Cl)c3)Oc3cc2cc(c3OC2OC(CO)C(O)C(O)C2OC2CC(C)(NCc3ccc(Oc4ccccc4)cc3)C(O)C(C)O2)Oc2ccc(cc2Cl)C1O)N(C)C(=S)Nc1ccc(N(C)C)cc1 (centres unmarked) [Example 19, N^LEU -((p-(DIMETHYLAMINO)-PHENYL)THIOCARBAMOYL)-N^DISACC -(p-PHENOXYBENZYL)A82846B] was run?
A: 2

Q: What about the “Minimal Inhibitory Concentration (MIC) SPN P1” value [2] of the same compound?
A: 2

Q: What about the “Minimal Inhibitory Concentration (MIC) SH 415” value [3] of the same compound?
A: 4

Q: What about the “Minimal Inhibitory Concentration (MIC) SA 489” value [4] of the same compound?
A: 2

Q: What about the “Minimal Inhibitory Concentration (MIC) SA 446” value [5] of the same compound?
A: 2

Q: What about the “Minimal Inhibitory Concentration (MIC) SPY C203” value [6] of the same compound?
A: 0.25

Q: And the “Minimal Inhibitory Concentration (MIC) SH 105” value [7]?
A: 2

Q: What about the “Minimal Inhibitory Concentration (MIC) SE 270” value [8] of the same compound?
A: 2

Q: And the “Minimal Inhibitory Concentration (MIC) RESISTANT” value [9]?
A: 19

Q: And the “Minimal Inhibitory Concentration (MIC) SENSITIVE” value [10]?
A: 2.6

Q: With CCCCc1ccc(NC(=S)N(C)C(CC(C)C)C(=O)NC2C(=O)NC(CC(N)=O)C(=O)NC3C(=O)NC4C(=O)NC(C(=O)NC(C(=O)O)c5cc(O)cc(O)c5-c5cc4ccc5O)C(OC4CC(C)(N)C(O)C(C)O4)c4ccc(c(Cl)c4)Oc4cc3cc(c4OC3OC(CO)C(O)C(O)C3OC3CC(C)(NCc4ccc(Oc5ccccc5)cc4)C(O)C(C)O3)Oc3ccc(cc3Cl)C2O)cc1 (centres unmarked) [Example 18, N^LEU -((p-n-BUTYLPHENYL)-THIOCARBAMOYL)-N^DISACC -(p-PHENOXYBENZYL)A82846B] as the compound, how does the “Minimal Inhibitory Concentration (MIC) SA 447” value [1] read?
A: 2

Q: What about the “Minimal Inhibitory Concentration (MIC) SPN P1” value [2] of the same compound?
A: 2

Q: What about the “Minimal Inhibitory Concentration (MIC) SH 415” value [3] of the same compound?
A: 2

Q: What about the “Minimal Inhibitory Concentration (MIC) SA 489” value [4] of the same compound?
A: 2

Q: And the “Minimal Inhibitory Concentration (MIC) SA 446” value [5]?
A: 2

Q: What about the “Minimal Inhibitory Concentration (MIC) SPY C203” value [6] of the same compound?
A: 0.25

Q: And the “Minimal Inhibitory Concentration (MIC) SH 105” value [7]?
A: 2

Q: What about the “Minimal Inhibitory Concentration (MIC) SE 270” value [8] of the same compound?
A: 2

Q: And the “Minimal Inhibitory Concentration (MIC) RESISTANT” value [9]?
A: 4.7

Q: And the “Minimal Inhibitory Concentration (MIC) SENSITIVE” value [10]?
A: 1.7
